From patent EP0409176B1, “Method and materials for detecting pathology from alterations in estrogen metabolism” (THE ROCKEFELLER UNIVERSITY, priority 1989, dated 1991)

Assays:
[1] = test system: estradiol hydroxylation at both the C-2 and C-16α sites; conditions: cited from earlier work
2OHE1 antiserum = assay: Radioimmunoassay cross-reactivity of the anti-2OHE1 antiserum; format: binding; conditions: antiserum raised against bovine serum albumin linked to 2-hydroxyestrone 17-carboxymethyloxime
Source text: Antibodies to 16α-OHE1, E2 and E3 were raised as described previously (Fishman, J., et al., SCIENCE, 204:1089-1091 (1979); Ikegawa, S., et al., J. STEROID BIOCHEM., 18:329-332 (1983)), while the anti-2OHE1 antiserum was a gift of Dr. Kanbegawa (Teikyo University, Japan) and was raised against bovine serum albumin linked to 2-hydroxyestrone 17-carboxymethyloxime. Cross-reactivities of the 2OHE1 antiserum with E1, E2 and E3, 16αOHE1, 2MeOE1, and 2-hydroxyestradiol (2OHE2) were 1.3%, 0.6%, 0.01%, 0.03%, 0.11% and 1.7%, respectively.
Each urine sample (1 or 2 mL) contained approximately 3000 dpm of […] steroid used to determine recovery, and was applied to a C18 Sep-pak cartridge followed by elution with 5 mL of methanol. The eluate was dried in vacuo and hydrolyzed with Glusulase for 12 h at 37°C. The hydrolyzed steroids were again extracted on a C18 Sep-pak cartridge and eluted with 5 mL of methanol. Aliquots of this final eluate were taken for determination of recovery (averaging 90-95%) and duplicate radioimmunoassay (100 µL). In order to prevent auto-oxidation of catecholestrogens, ascorbic acid (1%) was used in all stages of the assay. Radiolabeled steroids and antisera were incubated with the specimens overnight at 4°C, and radioactivity was measured with a Packard model 3000 scintillation counter. Estrogen levels are expressed relative to urinary creatinine concentration. Statistical analysis was performed with an unpaired t-test. Unless otherwise specified, all values are reported as means ± SEM.

[2] = test system: hepatic estradiol 2-hydroxylation; assay: Extent of estradiol 2-hydroxylation after indole-3-carbinol administration; format: in vivo; conditions: 500 mg daily for one week, humans
Procedure: (§1) In this study by two of the inventors herein, which study was just recently published, certain dietary indoles were examined for their induction of hepatic estradiol 2-hydroxylation. In particular, indole-3-carbinol (I3C) was administered to humans at a rate of 500 mg daily for one week.

[3] = test system: estradiol 2-hydroxylation; assay: Urinary estrogen metabolites and ratios before and after I3C or high fiber diet; format: in vivo, humans
Procedure: as §1
In conjunction with this study, certain comparative data were developed between the administration of I3C to women and men, and the administration of a high fiber diet to women. The comparative results are presented in Table 6A, B and C below, wherein Table 6A represents the data from women taking I3C, Table 6B represents the data respecting the women who were placed on a high fiber diet, and Table 6C represents the data gathered from the sample of men who were administered I3C.

[4] = test system: 16α-hydroxylation of estradiol; conditions: 800 mg per dose twice daily oral for two weeks; nine normal male volunteers; radiometric analysis; cited from earlier work
[5] = test system: cytochrome P-450-dependent metabolism of estradiol; conditions: cited from earlier work
[6] = test system: cytochrome P-450-dependent metabolism of estradiol; conditions: 800 mg per dose twice daily oral for two weeks; nine normal male volunteers; P<0.04; cited from earlier work
[7] = after thyroxine administration versus baseline

Compound: N[C@@H](Cc1cc(I)c(Oc2cc(I)c(O)c(I)c2)c(I)c1)C(=O)O [Thyroxine, thyroxine]
- Urinary 16αOHE1 ([1]; Post: following two weeks of thyroxine (4.3 mcg/kg/d), mean ± SEM, Pre 2.07 ± 0.24, NS): 2.24 ± 0.17 µg creatinine
- Urinary E2 ([1]; Post: following two weeks of thyroxine (4.3 mcg/kg/d), mean ± SEM, Pre 2.78 ± 0.23, NS): 3.03 ± 0.27 µg creatinine
- Urinary 2OHE1 ([1]; Post: following two weeks of thyroxine (4.3 mcg/kg/d), mean ± SEM, Pre 2.88 ± 0.32, P 0.01): 5.30 ± 0.85 µg creatinine
- Urinary E3 ([1]; Post: following two weeks of thyroxine (4.3 mcg/kg/d), mean ± SEM, Pre 5.84 ± 0.88, NS): 5.37 ± 0.78 µg creatinine
- Urinary E1 ([1]; Post: following two weeks of thyroxine (4.3 mcg/kg/d), mean ± SEM, Pre 7.36 ± 0.39, NS): 7.30 ± 0.74 µg creatinine
- Urinary Total estrogens ([1]; Post: following two weeks of thyroxine (4.3 mcg/kg/d), mean ± SEM, Pre 20.93 ± 1.58, NS): 23.24 ± 2.41. µg creatinine
- index [2OHE1]/[E3] change after thyroxine administration [1, 7]: nearly doubled
- urinary 2-hydroxyestrone after thyroxine administration [1, 7]: significantly greater
- [2OHE1]/[E3] ([1]; urinary ratio, Post: following two weeks of thyroxine (4.3 mcg/kg/d), Pre 0.56 ± 0.09, P 0.01): 1.05 ± 0.14

Compound: C[C@]12CC[C@@H]3c4ccc(O)cc4CC[C@H]3[C@@H]1C[C@@H](O)C2=O [16αOHE1, 16α-hydroxyestrone]
- Cross-reactivities of the 2OHE1 antiserum (2OHE1 antiserum): 0.03%

Compound: C[C@]12CC[C@@H]3c4ccc(O)cc4CC[C@H]3[C@@H]1C[C@@H](O)[C@@H]2O [E3, estriol]
- Cross-reactivities of the 2OHE1 antiserum (2OHE1 antiserum): 0.01%

Compound: COc1cc2c(cc1O)CC[C@@H]1[C@@H]2CC[C@]2(C)C(=O)CC[C@@H]12 [2MeOE1, 2-methoxyestrone]
- Cross-reactivities of the 2OHE1 antiserum (2OHE1 antiserum): 0.11%

Compound: OCc1c[nH]c2ccccc12 [I3C, indole-3-carbinol]
- extent of estradiol 2-hydroxylation [2]: significantly increased
- [2OHE1]/[E3] ([3]; Men Taking I3C (N=7), Post, Pre 1.06 ± 0.11, P <0.02): 2.04 ± 0.35
- [E3] ([3]; Men Taking I3C (N=7), Post, Pre 6.4 ± 1.8, P <0.006): 4.2 ± 1.3
- [2OHE1] ([3]; Men Taking I3C (N=7), Post, Pre 6.6 ± 2.3, NS): 8.2 ± 3.5
- [E1] ([3]; Men Taking I3C (N=7), Post, Pre 8.4 ± 1.8, NS): 8.9 ± 2.3
- [E3]/[E1] ([3]; Women (N=5), Post, Pre 1.04 ± 0.20, NS): 0.74 ± 0.11
- [2OHE1]/[E1] ([3]; Women (N=5), Post, Pre 1.15 ± 0.24, P <0.05): 1.53 ± 0.20
- [2OHE1]/[E3] ([3]; Women (N=5), Post, Pre 1.27 ± 0.30, P <0.005): 2.35 ± 0.50
- induction of estradiol 2-hydroxylation ([3]; conclusion from Tables 6A-C): potent inducers

Compound: CN/C(=N/CCSCc1nc[nH]c1C)NC#N [Cimetidine]
- 16α-hydroxylation of estradiol [4]: unaffected
- urinary excretion of 2-hydroxyestrone decreased ([5]; 800 mg per dose twice daily oral for two weeks, nine normal male volunteers, P<0.0002): approximately 25%
- Urinary Excretion of Total estrogens ([5]; After Cimetidine 800 mg orally twice a day for 14 days, sum of estrone, estradiol, estriol, 16α-hydroxyestrone, 2-hydroxyestrone, n=9, before 10.7 ± 1.1, P 0.02): 9.9 ± 0.9 nmol/nmol of creatinine
- Urinary Excretion of 16α-Hydroxyestrone ([5]; After Cimetidine 800 mg orally twice a day for 14 days, timed overnight urine, mean ± SEM, n=9, before 1.08 ± 0.11, NS): 1.05 ± 0.08 nmol/nmol of creatinine
- Urinary Excretion of Estradiol ([5]; After Cimetidine 800 mg orally twice a day for 14 days, timed overnight urine, mean ± SEM, n=9, before 1.28 ± 0.15, NS): 1.25 ± 0.10 nmol/nmol of creatinine
- Urinary Excretion of 2-Hydroxyestrone ([5]; After Cimetidine 800 mg orally twice a day for 14 days, timed overnight urine, mean ± SEM, n=9, before 1.71 ± 0.20, P 0.0002): 1.27 ± 0.19 nmol/nmol of creatinine
- Urinary Excretion of Estrone ([5]; After Cimetidine 800 mg orally twice a day for 14 days, timed overnight urine, mean ± SEM, n=9, before 3.80 ± 0.34, P 0.03): 3.32 ± 0.26 nmol/nmol of creatinine
- ratio of 2-hydroxyestrone to estriol reduced ([5]; after Cimetidine treatment): approximately 40%
- 2-Hydroxyestrone/estriol ([5]; urinary ratio After Cimetidine 800 mg orally twice a day for 14 days, mean ± SEM, n=9, before 0.74 ± 0.18, P 0.015): 0.47 ± 0.10
- serum concentration of estradiol increased [6]: approximately 20%

Compound: C[C@]12CC[C@@H]3c4cc(O)c(O)cc4CC[C@H]3[C@@H]1CC[C@@H]2O [2-hydroxyestradiol]
- Cross-reactivities of the 2OHE1 antiserum (2OHE1 antiserum): 1.7%
